The values that follow come from ChEMBL document CHEMBL4014322, “Atropisomerism and Conformational Equilibria: Impact on PI3Kδ Inhibition of 2-((6-Amino-9H-purin-9-yl)methyl)-5-methyl-3-(o-tolyl)quinazolin-4(3H)-one (IC87114) and Its Conformationally Restricted Analogs” (J Med Chem, 2017).

Assay [1] has as its target PI3-kinase p110-delta/p85-alpha (Homo sapiens, UniProt O00329). The experiment in a line: Inhibition of human recombinant full length N-terminal His6-tagged PI3K p110delta/p85alpha expressed in baculovirus infected Sf9 insect cells using PI:PS as substrate after 60 mins by ADP-Glo assay. (ADP-Glo first removes unused ATP, then detects ADP through luciferase.)
Assay [2] addresses T1, Phosphatidylinositol 4,5-bisphosphate 3-kinase catalytic subunit delta isoform (Homo sapiens, UniProt O00329).
T1 sequence (O00329 whole entry): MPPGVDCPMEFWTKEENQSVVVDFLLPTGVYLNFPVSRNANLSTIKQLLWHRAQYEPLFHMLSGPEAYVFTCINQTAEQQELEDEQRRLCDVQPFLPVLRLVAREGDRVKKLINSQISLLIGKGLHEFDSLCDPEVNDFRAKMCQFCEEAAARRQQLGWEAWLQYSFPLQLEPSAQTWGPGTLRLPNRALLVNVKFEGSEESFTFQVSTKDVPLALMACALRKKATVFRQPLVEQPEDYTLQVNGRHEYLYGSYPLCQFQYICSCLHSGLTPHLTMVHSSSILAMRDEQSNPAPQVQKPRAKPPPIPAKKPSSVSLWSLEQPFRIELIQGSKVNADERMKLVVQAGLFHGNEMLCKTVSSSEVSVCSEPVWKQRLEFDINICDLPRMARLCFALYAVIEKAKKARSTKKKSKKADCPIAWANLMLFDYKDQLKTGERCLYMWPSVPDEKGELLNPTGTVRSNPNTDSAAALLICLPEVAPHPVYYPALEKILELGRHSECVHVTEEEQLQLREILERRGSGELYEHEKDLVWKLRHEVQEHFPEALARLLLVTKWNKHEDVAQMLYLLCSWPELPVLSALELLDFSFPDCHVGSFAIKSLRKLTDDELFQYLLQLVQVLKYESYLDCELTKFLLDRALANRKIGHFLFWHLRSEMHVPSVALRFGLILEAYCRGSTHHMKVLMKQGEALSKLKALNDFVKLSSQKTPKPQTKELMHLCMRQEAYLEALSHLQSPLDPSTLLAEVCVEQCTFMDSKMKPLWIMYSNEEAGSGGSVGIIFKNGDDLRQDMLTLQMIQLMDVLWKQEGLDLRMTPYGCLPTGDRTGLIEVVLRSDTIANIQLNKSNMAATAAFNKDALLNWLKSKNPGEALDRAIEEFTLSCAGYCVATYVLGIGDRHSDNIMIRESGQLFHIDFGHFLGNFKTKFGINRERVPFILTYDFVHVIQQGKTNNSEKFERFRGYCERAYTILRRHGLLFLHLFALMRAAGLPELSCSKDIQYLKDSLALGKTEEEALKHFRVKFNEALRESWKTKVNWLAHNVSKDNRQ
Description: Inhibition of PI3Kdelta in human PBMC assessed as reduction in anti-human CD28 antibody stimulated IL-6 secretion levels after 72 hrs by ELISA

Sequence of PI3-kinase p110-delta/p85-alpha (P27986 whole entry, one chain of several, canonical isoform): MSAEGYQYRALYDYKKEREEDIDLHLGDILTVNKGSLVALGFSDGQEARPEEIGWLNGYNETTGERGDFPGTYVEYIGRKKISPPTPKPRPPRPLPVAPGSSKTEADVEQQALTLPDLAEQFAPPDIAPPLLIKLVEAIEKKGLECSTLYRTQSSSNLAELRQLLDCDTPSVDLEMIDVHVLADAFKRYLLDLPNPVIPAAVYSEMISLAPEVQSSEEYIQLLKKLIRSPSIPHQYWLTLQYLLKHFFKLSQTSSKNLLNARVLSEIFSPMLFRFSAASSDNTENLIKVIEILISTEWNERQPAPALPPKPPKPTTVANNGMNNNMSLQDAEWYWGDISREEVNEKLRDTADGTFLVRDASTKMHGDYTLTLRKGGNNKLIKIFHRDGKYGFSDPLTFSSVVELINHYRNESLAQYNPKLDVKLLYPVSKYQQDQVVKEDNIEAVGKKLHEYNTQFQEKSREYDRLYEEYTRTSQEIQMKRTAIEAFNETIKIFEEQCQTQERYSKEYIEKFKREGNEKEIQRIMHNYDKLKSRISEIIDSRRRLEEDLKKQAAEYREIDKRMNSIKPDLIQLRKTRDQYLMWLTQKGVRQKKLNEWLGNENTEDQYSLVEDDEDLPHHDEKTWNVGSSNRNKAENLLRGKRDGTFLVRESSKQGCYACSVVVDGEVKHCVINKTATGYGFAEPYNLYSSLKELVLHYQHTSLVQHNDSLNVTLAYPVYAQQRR

A word on the Ki: it is a dissociation constant, usually derived from enzyme kinetics or from competition with a known ligand. `Cc1ccccc1-n1c([C@@H](C)n2cnc3c(N)ncnc32)nc2cccc(C)c2c1=O` (stereo in doubt; form 1): the Ki in assay [1] was 126 nM.

One may read the IC50 as the concentration that inhibits the measured activity by half. Read a high IC50 as weaker potency. Regarding `Cc1cccc2nc(Cn3cnc4c(N)ncnc43)n(-c3ccccc3)c(=O)c12`, the IC50 in assay [2] was 50.1 nM. For the same molecule, the Ki in assay [1] is 25.1 nM.

For `Cc1ccccc1-n1c([C@H](C)n2cnc3c(N)ncnc32)nc2cccc(C)c2c1=O` (stereo in doubt; form 1), 6.31 nM corresponded to half-maximal inhibition in assay [2] (IC50). Besides, the Ki in assay [1] was 3.16 nM.

Take `Cc1ccccc1-n1c([C@@H](C)n2cnc3c(N)ncnc32)nc2cccc(C)c2c1=O` (stereo in doubt; form 2): in assay [1], the Ki was 12.6 nM.

The molecule `Cc1ccccc1-n1c([C@H](C)n2cnc3c(N)ncnc32)nc2cccc(C)c2c1=O` (stereo in doubt; form 2) had an IC50 in assay [2] of 1.26 nM. Besides, the Ki in assay [1] is 1.58 nM.
